Measurements: PMC3573960 (Molecular Neurodegeneration, 2012)

Columns and labels:
[1] = system: Aph1AL containing γ-secretase complexes; test: Cell-free AICD production from APP β-CTF (Western blot); format: biochemical, murine; conditions: 10 μM
Procedure: DAPT was used as a reference positive control for the assay. For each assay condition, a 5-μL microsomal fraction, containing 1% CHAPSO (3-[(3-cholamidopropyl)dimethylammonio]-2-hydroxy-1-propanesulfonate) from murine embryonic fibroblasts (MEF) lacking the Aph-1A, Aph-1B, and Aph-1C genes (triple knock out) and rescued with Aph-1AL, was prepared in a reaction mixture of 5 μL substrate (recombinant APP β-CTF 3-Flag-tagged) at 0.8 μM, 0.0125% phosphatidylethanolamine, 0.1%, phosphatidylcholine, 0.05% sphingomyelin, and 8.9 μL PIPES (piperazine-N,N′-bis[−ethanesulfonic acid]) buffer. […] For detection of AICD, one-half of the reaction mixture was purified by a methanol-chloroform extraction in order to remove lipids and hydrophobic proteins (e.g., APP β-CTF). This purified fraction was further analyzed by SDS-PAGE and Western blotting. AICD was detected with an ANTI-FLAG® antibody (Sigma-Aldrich). The other half of the reaction mixture was used to analyze the levels of Aβ1-40 and Aβ1-42 by AlphaLisa (Perkin Elmer, Waltham, MA).

[2] = system: Tg2576 mice; set-up: method as in PMID 16192379; conditions: 100 mg/kg p.o., 3 h before training; cited from earlier work
[3] = system: Aβ42; set-up: method as in PMID 15304503; conditions: cited from earlier work
[4] = system: γ-secretase (EphA4); test: EphA4 CTF accumulation in rat primary neocortical cultures (Western blot); conditions: 24 h, as low as 100 nM
Procedure: Protein concentration of the lysate was determined by the BCA method, and 30 μg of total protein were loaded on a 10% Bis-Tris gel (Invitrogen). EphA4 CTF was visualized using an anti-EphA4-CTF antibody (Abnova, Walnut, CA) and an IRDye800CW® secondary antibody (Rockland Immunochemicals, Inc., Gilbertsville, PA). Detection was performed using an Odyssey scanner (LiCor Biosciences) and blots quantified using ImageJ software (available at http://rsbweb.nih.gov/ij).

[5] = system: γ-secretase; test: APP CTF accumulation in H4-APP751 cell lysates (Western blot); format: cell-based, human; conditions: H4-APP751 cells, 16 h
Text: Cells were lysed in situ and the resulting lysate cleared of nuclei by centrifugation, as described elsewhere. Samples were fractionated by SDS-PAGE on a 12% NuPage gel (Invitrogen), transferred to a nitrocellulose membrane, and immunoblotted with an anti-APP-CTF antibody (Sigma-Aldrich).

[6] = system: AD patients; set-up: method as in PMID 18695053, PMID 21222550, PMID 22323718; conditions: cited from earlier work
[7] = system: Tg2576 mice; set-up: method as in PMID 10908610, PMID 12930788; conditions: diet of 375 ppm for 4–6 months; cited from earlier work

For `C[C@H](NC(=O)Cc1cc(F)cc(F)c1)C(=O)N[C@H](C(=O)OC(C)(C)C)c1ccccc1` [DAPT, N-(N-(3,5-difluorophenacetyl)-L-alanyl)-S-phenylglycine t-butyl ester, reference compound], the “production of AICD from APP β-CTF” value [1] is listed as “almost completely abolished” and the CFC cognitive deficit [2] is listed as “rapidly improved the CFC cognitive deficit”.
For `C[C@@H](C(=O)O)c1ccc(-c2ccccc2)c(F)c1` [Flurizan™], the IC50 [3] is given as greater than 300 µM.
With `C[C@H](NC(=O)[C@@H](O)c1cc(F)cc(F)c1)C(=O)N[C@@H]1C(=O)N(C)c2ccccc2-c2ccccc21` [LY-411,575, reference compound] the “EphA4 CTF accumulation” value [4] was “led to EphA4 CTF accumulation”, the “Full length APP” value ([5]; 1 nM to 10 μM) was “not altered” and the “accumulation of APP α- or β-CTFs” value ([5]; concentration as low as 1 nM) was “led to their accumulation”.
In the case of `CC(C)[C@H](O)C(=O)N[C@@H](C)C(=O)N[C@@H]1C(=O)N(C)CCc2ccccc21` [Semegacestat], the “toxicities in clinical trials in AD” value [6] is listed as “drug-related rashes, lightening of hair color, skin cancer, and more importantly, worsening of cognition and the ability to perform activities of daily living”.
For `CC(C)Cc1ccc(C(C)C(=O)O)cc1` (centres unmarked) [ibuprofen], the “amyloid plaque load and inflammatory mediators” value [7] is given as “marked decrease”.
